Reference: patent publication US11498903B2 (BRISTOL-MYERS SQUIBB COMPANY, priority 2017, dated 2022)
Like-named read-outs stand apart in the source and are kept apart here.

Biological target: T1, human APJ receptor (Homo sapiens, UniProt P35414)
T1 construct: expressed in transfected cells
T1 sequence (P35414 1-380): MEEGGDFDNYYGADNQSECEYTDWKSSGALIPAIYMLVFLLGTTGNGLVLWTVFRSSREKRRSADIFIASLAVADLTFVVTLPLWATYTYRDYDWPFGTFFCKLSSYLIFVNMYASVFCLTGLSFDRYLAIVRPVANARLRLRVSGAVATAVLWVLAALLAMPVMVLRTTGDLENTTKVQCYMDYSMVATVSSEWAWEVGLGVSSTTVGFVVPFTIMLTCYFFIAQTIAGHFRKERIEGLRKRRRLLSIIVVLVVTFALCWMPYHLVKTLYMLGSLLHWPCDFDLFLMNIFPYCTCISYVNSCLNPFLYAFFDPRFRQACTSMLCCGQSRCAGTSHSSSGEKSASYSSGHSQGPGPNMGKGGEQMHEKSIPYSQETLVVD
Assay: Intracellular cAMP accumulation assay (APJ hcAMP, HTRF)
Type: cell-based
Conditions: HEK293 cells stably expressing human APJ receptor
Outline: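 HEK293 cells stably expressing human APJ, 5,000/well, incubated 30 min at room temperature with compound plus […] and 2 μM forskolin. cAMP read by HTRF against a cAMP standard curve; EC50 from variable-slope sigmoidal fit, Ymax as % of (Pyr1)apelin-13 inhibition.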

[1] = Table 1, inhibition of forskolin-mediated cAMP production, read-out: APJ hcAMP EC50
[2] = Table 3, read-out: APJ cAMP Human EC50

EC50 [1] [nM] | EC50 [2] [nM] | Compound
< 10 | < 10 | CCCC(NC(=O)c1ccc(-c2c(Cl)cccc2-c2nc3cc(OC)c(OC)cc3[nH]2)c(C(=O)O)c1)c1ccccc1 [Example 93, (S)-2′-chloro-6′-(5,6-dimethoxy-1H-1,3-benzodiazol-2-yl)-4-{[(1R)-1-phenylbutyl]carbamoyl}-[1,1′-biphenyl]-2-carboxylic acid]
 | < 10 | CCCC(NC(=O)c1ccc(-c2c(Cl)cccc2-c2ncc(-c3c(F)ccc(F)c3F)[nH]2)c(C(=O)O)c1)c1ccccc1 [Example 100, (S)-2′-chloro-4-{[(1R)-1-phenylbutyl]carbamoyl}-6′-[5-(2,3,6-trifluorophenyl)-1H-imidazol-2-yl]-[1,1′-biphenyl]-2-carboxylic acid]
 | < 10 | CCCC(NC(=O)c1ccc(-c2c(Cl)cccc2-c2ncc(-c3cccnc3)[nH]2)c(C(=O)O)c1)c1ccccc1 [Example 101, (S)-2′-chloro-4-{[(1R)-1-phenylbutyl]carbamoyl}-6′-[5-(pyridin-3-yl)-1H-imidazol-2-yl]-[1,1′-biphenyl]-2-carboxylic acid]
10 to 100 | 10 to 100 | COc1cc2[nH]c(-c3cccc(Cl)c3-c3ccc(C(=O)NC(C)C)cc3C(=O)O)nc2cc1F [Example 109, (S)-2′-chloro-6′-(5-fluoro-6-methoxy-1H-1,3-benzodiazol-2-yl)-4-[(propan-2-yl)carbamoyl]-[1,1′-biphenyl]-2-carboxylic acid]
< 10 | < 10 | COc1cc2[nH]c(-c3cccc(Cl)c3-c3ccc(C(=O)N4CCC(c5ccccc5)CC4)cc3C(=O)O)nc2cc1F [Example 110, (S)-2′-chloro-6′-(5-fluoro-6-methoxy-1H-1,3-benzodiazol-2-yl)-4-(4-phenylpiperidine-1-carbonyl)-[1,1′-biphenyl]-2-carboxylic acid]
 | < 10 | COCCNC(=O)c1ccc(-c2c(Cl)cccc2-c2nc3cc(F)c(OC)cc3[nH]2)c(C(=O)O)c1 [Example 111, (S)-2′-chloro-6′-(5-fluoro-6-methoxy-1H-1,3-benzodiazol-2-yl)-4-[(2-methoxyethyl)carbamoyl]-[1,1′-biphenyl]-2-carboxylic acid]
< 10 | < 10 | COc1cc2[nH]c(-c3cccc(Cl)c3-c3ccc(C(=O)NCCc4ccccc4)cc3C(=O)O)nc2cc1F [Example 112, (S)-2′-chloro-6′-(5-fluoro-6-methoxy-1H-1,3-benzodiazol-2-yl)-4-[(2-phenylethyl)carbamoyl]-[1,1′-biphenyl]-2-carboxylic acid]
< 10 | < 10 | COc1cc2[nH]c(-c3cccc(Cl)c3-c3ccc(C(=O)N4CCc5ccccc5C4)cc3C(=O)O)nc2cc1F [Example 113, (S)-2′-chloro-6′-(5-fluoro-6-methoxy-1H-1,3-benzodiazol-2-yl)-4-(1,2,3,4-tetrahydroisoquinoline-2-carbonyl)-[1,1′-biphenyl]-2-carboxylic acid]
< 10 | < 10 | COc1cc2[nH]c(-c3cccc(Cl)c3-c3ccc(C(=O)NCCC(C)C)cc3C(=O)O)nc2cc1F [Example 114, (S)-2′-chloro-6′-(5-fluoro-6-methoxy-1H-1,3-benzodiazol-2-yl)-4-[(3-methylbutyl)carbamoyl]-[1,1′-biphenyl]-2-carboxylic acid]
 | 10 to 100 | COc1ccc(CNC(=O)c2ccc(-c3c(Cl)cccc3-c3nc4cc(F)c(OC)cc4[nH]3)c(C(=O)O)c2)cc1 [Example 115, (S)-2′-chloro-6′-(5-fluoro-6-methoxy-1H-1,3-benzodiazol-2-yl)-4-{[(4-methoxyphenyl)methyl]carbamoyl}-[1,1′-biphenyl}-2-carboxylic acid]
 | 10 to 100 | COC(=O)CCNC(=O)c1ccc(-c2c(Cl)cccc2-c2nc3cc(F)c(OC)cc3[nH]2)c(C(=O)O)c1 [Example 116, (S)-2′-chloro-6′-(5-fluoro-6-methoxy-1H-1,3-benzodiazol-2-yl)-4-[(3-methoxy-3-oxopropyl)carbamoyl]-[1,1′-biphenyl]-2-carboxylic acid]
10 to 100 | 10 to 100 | COc1cc2[nH]c(-c3cccc(Cl)c3-c3ccc(C(=O)NCC(c4ccccc4)c4ccccc4)cc3C(=O)O)nc2cc1F [Example 117, (S)-2′-chloro-4-[(2,2-diphenylethyl)carbamoyl]-6′-(5-fluoro-6-methoxy-1H-1,3-2-benzodiazol-2-yl)-[1,1′-biphenyl]-2-carboxylic acid]
10 to 100 | 10 to 100 | COc1cc2[nH]c(-c3cccc(Cl)c3-c3ccc(C(=O)N4CCN(C)CC4)cc3C(=O)O)nc2cc1F [Example 118, (S)-2′-chloro-6′-(5-fluoro-6-methoxy-1H-1,3-benzodiazol-2-yl)-4-(4-methylpiperazine-1-carbonyl)-[1,1′-biphenyl]-2-carboxylic acid]
10 to 100 | 10 to 100 | COc1cc2[nH]c(-c3cccc(Cl)c3-c3ccc(C(=O)NCc4ccccc4)cc3C(=O)O)nc2cc1F [Example 119, (S)-4-(benzylcarbamoyl)-2′-chloro-6′-(5-fluoro-6-methoxy-1H-1,3-benzodiazol-2-yl)-[1,1′-biphenyl]-2-carboxylic acid]
10 to 100 | 10 to 100 | COc1cc2[nH]c(-c3cccc(Cl)c3-c3ccc(C(=O)NCc4ccc(Cl)cc4)cc3C(=O)O)nc2cc1F [Example 120, (S)-2′-chloro-4-{[(4-chlorophenyl)methyl]carbamoyl}-6′-(5-fluoro-6-methoxy-1H-1,3-benzodiazol-2-yl)-[1,1′-biphenyl]-2-carboxylic acid]
10 to 100 | 10 to 100 | COc1cc2[nH]c(-c3cccc(Cl)c3-c3ccc(C(=O)NCC(C)C)cc3C(=O)O)nc2cc1F [Example 121, (S)-2′-chloro-6′-(5-fluoro-6-methoxy-1H-1,3-benzodiazol-2-yl)-4-[(2-methylpropyl)carbamoyl [1,1′-biphenyl]-2-carboxylic acid]
10 to 100 | 10 to 100 | COc1cc2[nH]c(-c3cccc(Cl)c3-c3ccc(C(=O)NCCCN(C)C)cc3C(=O)O)nc2cc1F [Example 122, (S)-2′-chloro-4-{[3-(dimethylamino)propyl]carbamoyl}-6′-(5-fluoro-6-methoxy-1H-1,3-benzodiazol-2-yl)-[1,1′-biphenyl]-2-carboxylic acid]
10 to 100 | 10 to 100 | COc1cc2[nH]c(-c3cccc(Cl)c3-c3ccc(C(=O)N4CCC(O)CC4)cc3C(=O)O)nc2cc1F [Example 123, (S)-2′-chloro-6′-(5-fluoro-6-methoxy-1H-1,3-benzodiazol-2-yl)-4-(4-hydroxypiperidine-1-carbonyl)-[1,1′-biphenyl]-2-carboxylic acid]
10 to 100 | 10 to 100 | COc1cc2[nH]c(-c3cccc(Cl)c3-c3ccc(C(=O)N4CCCC4)cc3C(=O)O)nc2cc1F [Example 124, (S)-2′-chloro-6′-(5-fluoro-6-methoxy-2-yl)-4-(pyrrolidine-1-carbonyl)-[1,1′-biphenyl]-2-carboxylic acid]
10 to 100 | 10 to 100 | COc1ccc(NC(=O)c2ccc(-c3c(Cl)cccc3-c3nc4cc(F)c(OC)cc4[nH]3)c(C(=O)O)c2)cc1 [Example 125, (S)-2′-chloro-6′-(5-fluoro-6-methoxy-1H-1,3-benzodiazol-2-yl)-4-[(4-methoxyphenyl)carbamoyl]-[1,1′-biphenyl]-2-carboxylic acid]
 | 101 to 500 | COc1cc2[nH]c(-c3cccc(Cl)c3-c3ccc(C(=O)N4CCC(Cc5ccccc5)CC4)cc3C(=O)O)nc2cc1F [Example 126, (S)-4-(4-benzylpiperidine-1-carbonyl)-2′-chloro-6′-(5-fluoro-6-methoxy-1H-1,3-benzodiazol-2-yl)-[1,1′-biphenyl]-2-carboxylic acid]
 | < 10 | CCC[C@@H](NC(=O)c1ccc(-c2c(Cl)cccc2-c2nc3cc(OC)c(F)cc3[nH]2)c(C(=O)NOC)c1)c1ccccc1 [Example 127, 2′-chloro-6′-(6-fluoro-5-methoxy-1H-1,3-benzodiazol-2-yl)-N2-methoxy-N4-[(1R)-1-phenylbutyl]-[1,1′-biphenyl]-2,4-dicarboxamide]
 | 10 to 100 | CCC[C@@H](NC(=O)c1ccc(-c2c(Cl)cccc2-c2nc3ccccc3[nH]2)c(-c2n[nH]c(=O)o2)c1)c1ccccc1 [Example 129, 2′-(1H-1,3-benzodiazol-2-yl)-6′-chloro-2-(5-oxo-4,5-dihydro-1,3,4-oxadiazol-2-yl)-N-[(1R)-1-phenylbutyl]-[1,1′-biphenyl]-4-carboxamide]
 | < 10 | CCC[C@@H](NC(=O)c1ccc(-c2c(Cl)cccc2-c2nc3cc(OC)c(F)cc3[nH]2)c(-c2n[nH]c(=O)o2)c1)c1ccccc1 [Example 130, 2′-chloro-6′-(6-fluoro-5-methoxy-1H-1,3-benzodiazol-2-yl)-2-(5-oxo-4,5-dihydro-1,3,4-oxadiazol-2-yl)-N-[(1R)-1-phenylbutyl]-[1,1′-biphenyl]-4-carboxamide]
10 to 100 | 10 to 100 | CCC[C@@H](NC(=O)c1ccc(-c2c(C)cccc2-c2nc3ccccc3n2C)c(C(=O)O)c1)c1ccccc1 [Example 137, 2′-methyl-6′-(1-methyl-1H-1,3-benzodiazol-2-yl)-4-{[(1R)-1-phenylbutyl]carbamoyl}-[1,1′-biphenyl]-2-carboxylic acid]
